Measurements published in ChEMBL document CHEMBL6096690, “Synthesis and Biological Evaluation of Peripheral HTR2A Antagonists for Colorectal Cancer” (J Med Chem, 2025).

Experiments:
[1] = biological target: 5-hydroxytryptamine receptor 2A (Homo sapiens, UniProt P28223); test: Antagonist activity at 5HTR2A (unknown origin) assessed as inhibition of 5-HTR2A
hERG (KCNH2) = hERG (KCNH2) (Homo sapiens, UniProt Q12809); test: Inhibition of hERG at 10 uM relative to control; type: toxicity
Sequence of hERG (KCNH2) (Q12809 whole entry): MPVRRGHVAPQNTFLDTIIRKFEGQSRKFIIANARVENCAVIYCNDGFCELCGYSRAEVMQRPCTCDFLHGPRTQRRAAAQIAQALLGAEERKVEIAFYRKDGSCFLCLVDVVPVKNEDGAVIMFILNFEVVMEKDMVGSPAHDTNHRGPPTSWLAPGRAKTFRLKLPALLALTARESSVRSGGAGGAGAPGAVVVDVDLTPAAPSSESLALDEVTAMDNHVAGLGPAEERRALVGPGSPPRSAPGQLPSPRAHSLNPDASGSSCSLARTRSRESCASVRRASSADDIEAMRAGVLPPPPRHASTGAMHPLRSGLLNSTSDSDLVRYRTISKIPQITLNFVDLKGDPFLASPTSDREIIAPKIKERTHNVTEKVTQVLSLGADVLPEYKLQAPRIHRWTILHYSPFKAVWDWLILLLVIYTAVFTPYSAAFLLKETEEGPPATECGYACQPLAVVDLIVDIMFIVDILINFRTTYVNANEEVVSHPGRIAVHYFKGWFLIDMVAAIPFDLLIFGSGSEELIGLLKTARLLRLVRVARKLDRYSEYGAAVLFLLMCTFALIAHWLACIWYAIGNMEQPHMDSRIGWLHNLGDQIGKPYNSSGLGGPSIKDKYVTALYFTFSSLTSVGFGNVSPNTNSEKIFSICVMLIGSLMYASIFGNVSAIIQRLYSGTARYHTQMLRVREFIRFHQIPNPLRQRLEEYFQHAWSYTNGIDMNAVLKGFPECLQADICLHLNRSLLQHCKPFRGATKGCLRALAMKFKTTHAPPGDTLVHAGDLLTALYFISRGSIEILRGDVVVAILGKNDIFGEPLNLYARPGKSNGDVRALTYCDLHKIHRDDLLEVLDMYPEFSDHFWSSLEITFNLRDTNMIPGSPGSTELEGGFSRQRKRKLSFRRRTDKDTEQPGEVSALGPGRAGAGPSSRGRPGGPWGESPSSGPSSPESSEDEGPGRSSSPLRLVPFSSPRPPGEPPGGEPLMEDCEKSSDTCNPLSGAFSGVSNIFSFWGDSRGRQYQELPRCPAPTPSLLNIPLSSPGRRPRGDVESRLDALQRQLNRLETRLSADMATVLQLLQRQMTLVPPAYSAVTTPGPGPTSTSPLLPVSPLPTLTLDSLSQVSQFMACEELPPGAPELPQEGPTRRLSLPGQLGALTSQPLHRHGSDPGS

Sequence of 5-hydroxytryptamine receptor 2A (P28223 whole entry): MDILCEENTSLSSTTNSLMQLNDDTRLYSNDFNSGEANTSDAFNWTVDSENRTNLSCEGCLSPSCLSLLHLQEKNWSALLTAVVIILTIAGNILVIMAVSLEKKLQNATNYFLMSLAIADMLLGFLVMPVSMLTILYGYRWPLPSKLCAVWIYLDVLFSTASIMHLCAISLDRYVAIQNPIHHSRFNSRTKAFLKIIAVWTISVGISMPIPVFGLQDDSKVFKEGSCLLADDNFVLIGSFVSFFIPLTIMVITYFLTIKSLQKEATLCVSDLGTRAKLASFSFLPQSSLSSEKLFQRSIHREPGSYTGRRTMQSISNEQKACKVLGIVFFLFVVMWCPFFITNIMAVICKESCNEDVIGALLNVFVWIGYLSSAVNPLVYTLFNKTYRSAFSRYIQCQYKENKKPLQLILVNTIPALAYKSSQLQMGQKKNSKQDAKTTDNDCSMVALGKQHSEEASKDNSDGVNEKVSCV

## O=C(NCc1ccc(OCC(O)CN2CCN(c3cccc(Cl)c3Cl)CC2)cc1)N(Cc1ccc(F)cc1)C1CCNCC1 (stereo not given)
[1]
  IC50: 0.0918 µM

## O=C(c1ccc(F)cc1)C1CCN(CC(O)COc2ccc(CNC(=O)N(Cc3ccc(F)cc3)C3CCNCC3)cc2)CC1 (stereo not given)
[1]
  IC50: 0.667 µM

## O=C(NCc1ccc(OCC(O)CN2CCC(C3c4ccc(Cl)cc4CCc4cccnc43)CC2)cc1)N(Cc1ccc(F)cc1)C1CCNCC1 (stereo not given)
[1]
  IC50: 0.82 µM

## O=C(NCc1ccc(OCC(O)CN2CCN(c3noc4cc(F)ccc34)CC2)cc1)N(Cc1ccc(F)cc1F)C1CCNCC1 (stereo not given)
hERG (KCNH2)
  inhibition at 10 µM: 87.7%
[1]
  IC50: 0.0465 µM
